The source of these data is US8476197B2, “Aminopropenoates as fungicides” (priority 2009, dated 2013).

Structures are written as SMILES. Marks after values point to notes of the source that are not given here.

For the first data set the following is noted: pH 2.7.
Consider `CCOC(=O)C(C#N)=C(NC(C)c1nccs1)c1c(C)nn(C)c1Cl` (stereo not shown) [Compound 98], for which the “Log P” value is 2.52^[a].

Regarding `CCOC(=O)C(C#N)=C(NCc1ccccn1)c1sccc1Br` [Compound 99], the “Log P” value was 2.61^[a].

Take `CCOC(=O)C(C#N)=C(NC(C)c1ccccn1)c1sccc1Br` (stereo not shown) [Compound 100]: the “Log P” value was 3.1^[a]. As to `CCOC(=O)C(C#N)=C(NCc1ccccn1)c1sccc1C(F)(F)F` [Compound 102], the “Log P” value was 2.84^[a]. On to `CCOC(=O)C(C#N)=C(NC(C)c1ccccn1)c1sccc1C(F)(F)F` (stereo not shown) [Compound 103], for which the “Log P” value was 3.27^[a]. Same read-out and setting: as for `CCOC(=O)C(C#N)=C(NCc1nccs1)c1ccsc1Br` [Compound 104], the figure is 2.66^[a]. On the same count and under the same terms, as for `CCOC(=O)C(C#N)=C(NC(C)c1nccs1)c1ccsc1Br` (stereo not shown) [Compound 105], the figure is 3.1^[a]; as for `CCOC(=O)C(C#N)=C(NC(C)Cc1c[nH]c2ccccc12)c1ccsc1Br` (stereo not shown) [Compound 106], 3.8^[a]; as for `CCOC(=O)C(C#N)=C(NC(c1cc2ccccc2s1)C(F)(F)F)c1sccc1C(F)(F)F` (stereo not shown) [Compound 107], 4.89^[a]. For the molecule `CCOC(=O)C(C#N)=C(NC(C)Cc1c[nH]c2ccccc12)c1sccc1C(F)(F)F` (stereo not shown) [Compound 108], the “Log P” value was 3.94^[a]. As to `COC(=O)C(C#N)=C(NC(C)c1cccnc1)c1cccnc1Cl` (stereo not shown) [Compound 109], the “Log P” value was 0.82^[a]. Still for that read-out and setting: under `COC(=O)C(C#N)=C(NC(C)c1ccccn1)c1cccnc1Cl` (stereo not shown) [Compound 110] stands 1.99^[a].

As for `CCOC(=O)C(C#N)=C(NC(C)c1nc(C)c(C)s1)c1ccsc1Br` (stereo not shown) [Compound 112], the “Log P” value was 3.7^[a]. The same measure, in the same setting: under `CCOC(=O)C(C#N)=C(NC(C)Cc1cc2ccccc2[nH]1)c1c(C)nn(C)c1Cl` (stereo not shown) [Compound 113] stands 3.24^[a]; under `CCOC(=O)C(C#N)=C(NCc1ccccn1)c1ccsc1Br` [Compound 115], 2.53^[a]. Consider `CCOC(=O)C(C#N)=C(NC(C)c1ccccn1)c1ccsc1Br` (stereo not shown) [Compound 116], for which the “Log P” value was 3.1^[a]. The same measure, in the same setting: under `CCOC(=O)C(C#N)=C(NC(C)C1CCCO1)c1cc(C)oc1C` (stereo not shown) [Compound 118] stands 3.27^[a]. Still for that read-out and setting: as for `CCOC(=O)C(C#N)=C(NC1CCCCNC1=O)c1cc(C)oc1C` (stereo not shown) [Compound 119], the figure is 2.14^[a]; as for `COC(=O)C(C#N)=C(NC1COC1)c1cccnc1Cl` [Compound 120], 1.35^[a]. Same read-out and setting: under `COC(=O)C(C#N)=C(NC(CN1CCOCC1)C1CC1)c1cccnc1Cl` (stereo not shown) [Compound 121] stands 1.38^[a].

As to `COC(=O)C(C#N)=C(NC1CSC1)c1cccnc1Cl` [Compound 122], the “Log P” value was 2.08^[a]. Same read-out and setting: under `COC(=O)C(C#N)=C(NC1CCCCNC1=O)c1cccnc1Cl` (stereo not shown) [Compound 123] stands 1.57^[a]; under `COC(=O)C(C#N)=C(NC(C)c1ncc(Br)cc1Cl)c1cccnc1Cl` (stereo not shown) [Compound 124], 3.24^[a]. The same measure, in the same setting: as for `COC(=O)C(C#N)=C(NC1CCS(=O)(=O)C1)c1cccnc1Cl` (stereo not shown) [Compound 125], the figure is 1.33^[a]; as for `COC(=O)C(C#N)=C(NC(C)C1CCCO1)c1cccnc1Cl` (stereo not shown) [Compound 126], 2.17^[a]. Still for that read-out and setting: as for `COC(=O)C(C#N)=C(NCc1nccs1)c1sc(C)nc1C(F)(F)F` [Compound 132], the figure is 2.33^[a]; as for `COC(=O)C(C#N)=C(NCc1ccccn1)c1sc(C)nc1C(F)(F)F` [Compound 134], 2.37^[a]. With `CCOC(=O)C(C#N)=C(NCc1nccs1)c1cn(C)nc1C(F)(F)F` [Compound 138], the “Log P” value was 2.43^[a].

For `CCOC(=O)C(C#N)=C(NCc1ccccn1)c1cn(C)nc1C(F)(F)F` [Compound 139], the “Log P” value was 2.36^[a]. Still for that read-out and setting: under `CCOC(=O)C(C#N)=C(NCc1nccs1)c1sc(C)nc1C(F)(F)F` [Compound 141] stands 2.66^[a]; under `CCOC(=O)C(C#N)=C(NCc1ccccn1)c1sc(C)nc1C(F)(F)F` [Compound 144], 2.7^[a]; under `CCOC(=O)/C(C#N)=C(\NC(C)c1nccs1)c1sccc1Cl` (stereo not shown) [Compound 149], 3.09^[a]. Same read-out and setting: as for `CCOC(=O)/C(C#N)=C(\NC(C)c1nc(C)c(C)s1)c1sccc1Cl` (stereo not shown) [Compound 150], the figure is 3.76^[a]. Same read-out and setting: as for `CCOC(=O)/C(C#N)=C(\NC(C)Cc1c[nH]c2ccccc12)c1sccc1Cl` (stereo not shown) [Compound 151], the figure is 3.8^[a]; as for `CCOC(=O)/C(C#N)=C(\NCc1nccs1)c1sccc1Cl` [Compound 153], 2.63^[a].

For the molecule `CCOC(=O)C(C#N)=C(NCc1ccccn1)c1c(C(F)F)nn(C)c1Cl` [Compound 155], the “Log P” value was 2.37^[a]. The same measure, in the same setting: as for `CCOC(=O)C(C#N)=C(NCc1ccccn1)c1sccc1Cl` [Compound 159], the figure is 2.56^[a]; as for `CCOC(=O)C(C#N)=C(NCc1nccs1)c1ccsc1I` [Compound 161], 2.68^[a]; as for `CCOC(=O)C(C#N)=C(NCc1ccccn1)c1ccsc1I` [Compound 166], 2.56^[a]. The same measure, in the same setting: under `CCOC(=O)C(C#N)=C(NCc1nc2ccccc2s1)c1sccc1Br` [Compound 170] stands 3.53^[a]; under `CCOC(=O)C(C#N)=C(NCc1nc(C(F)(F)F)cs1)c1sccc1Br` [Compound 171], 3.37^[a]; under `CCOC(=O)C(C#N)=C(NCc1nc(C)cs1)c1sccc1C(F)(F)F` [Compound 175], 3.11^[a]. Same read-out and setting: under `CCOC(=O)C(C#N)=C(NCc1nc2ccccc2s1)c1sccc1C(F)(F)F` [Compound 176] stands 3.67^[a]. As for `CCOC(=O)C(C#N)=C(NCc1nc(C(F)(F)F)cs1)c1sccc1C(F)(F)F` [Compound 177], the “Log P” value is 3.51^[a]. Same read-out and setting: as for `COC(=O)C(C#N)=C(NCc1nc(C)cs1)c1sc(C)nc1C(F)(F)F` [Compound 181], the figure is 2.58^[a]; as for `COC(=O)C(C#N)=C(NCc1ncc(C)s1)c1sc(C)nc1C(F)(F)F` [Compound 183], 2.63^[a]; as for `COC(=O)C(C#N)=C(NCc1nc2ccccc2s1)c1sc(C)nc1C(F)(F)F` [Compound 184], 3.15^[a]. Same read-out and setting: under `COC(=O)C(C#N)=C(NCc1nc(C(F)(F)F)cs1)c1sc(C)nc1C(F)(F)F` [Compound 185] stands 3.06^[a]. On to `CCOC(=O)C(C#N)=C(NC(C)c1nc(C)cs1)c1cn(C)nc1C(F)F` (stereo not shown) [Compound 188], for which the “Log P” value was 2.65^[a]. Same read-out and setting: under `CCOC(=O)C(C#N)=C(NCc1nc(C)cs1)c1cn(C)nc1C(F)F` [Compound 189] stands 2.3^[a]; under `CCOC(=O)C(C#N)=C(NC(C)c1ncc(C)s1)c1cn(C)nc1C(F)F` (stereo not shown) [Compound 190], 2.68^[a]; under `CCOC(=O)C(C#N)=C(NCc1nc2ccccc2s1)c1cn(C)nc1C(F)F` [Compound 191], 2.82^[a].

With `CCOC(=O)C(C#N)=C(NCc1nc(C(F)(F)F)cs1)c1cn(C)nc1C(F)F` [Compound 192], the “Log P” value was 2.78^[a]. Consider `CCOC(=O)C(C#N)=C(NC(C)C1CCCO1)c1sc(C)nc1C(F)(F)F` (stereo not shown) [Compound 193], for which the “Log P” value is 3.29^[a]. Still for that read-out and setting: as for `CCOC(=O)C(C#N)=C(NC(C)c1nc(C)cs1)c1sc(C)nc1C(F)(F)F` (stereo not shown) [Compound 194], the figure is 3.42^[a]; as for `CCOC(=O)C(C#N)=C(NCc1nc(C)cs1)c1sc(C)nc1C(F)(F)F` [Compound 195], 2.9^[a]. Take `CCOC(=O)C(C#N)=C(NC(C)c1ncc(C)s1)c1sc(C)nc1C(F)(F)F` (stereo not shown) [Compound 196]: the “Log P” value was 3.46^[a]. Still for that read-out and setting: under `CCOC(=O)C(C#N)=C(NCc1nc2ccccc2s1)c1sc(C)nc1C(F)(F)F` [Compound 197] stands 3.48^[a]; under `CCOC(=O)C(C#N)=C(NCc1nc(C(F)(F)F)cs1)c1sc(C)nc1C(F)(F)F` [Compound 198], 3.35^[a].

Take `CCOC(=O)C(C#N)=C(NC(C)C1CCCO1)c1cn(C)nc1C(F)F` (stereo not shown) [Compound 199]: the “Log P” value was 2.58^[a]. For the molecule `CCOC(=O)C(C#N)=C(NCc1ccc(F)cn1)c1sccc1Br` [Compound 200], the “Log P” value is 3.04^[a].

On to `CCOC(=O)C(C#N)=C(NCc1ccc(F)cn1)c1sccc1C(F)(F)F` [Compound 201], for which the “Log P” value is 3.19^[a]. For the molecule `COC(=O)C(C#N)=C(NCc1ccc(F)cn1)c1sc(C)nc1C(F)(F)F` [Compound 202], the “Log P” value is 2.67^[a]. In the case of `CCOC(=O)C(C#N)=C(NCc1ccc(F)cn1)c1cn(C)nc1C(F)F` [Compound 203], the “Log P” value is 2.33^[a]. Same read-out and setting: as for `CCOC(=O)C(C#N)=C(NCc1ccc(F)cn1)c1sc(C)nc1C(F)(F)F` [Compound 204], the figure is 2.98^[a]. Still for that read-out and setting: as for `C=CCOC(=O)C(C#N)=C(NC(C)c1nccs1)c1sccc1Br` (stereo not shown) [Compound 205], the figure is 3.31^[a]; as for `CCOC(=O)C(C#N)=C(NC(C)c1nccs1)c1nc(Cl)ccc1Cl` (stereo not shown) [Compound 208], 3.02^[a]; as for `CCOC(=O)C(C#N)=C(NC(C)c1cccs1)c1sccc1C(F)(F)F` (stereo not shown) [Compound 209], 3.99^[a]. The same measure, in the same setting: under `COC(=O)C(C#N)=C(NC(C)c1cccs1)c1sc(C)nc1C(F)(F)F` (stereo not shown) [Compound 210] stands 3.46^[a]. As for `CCOC(=O)C(C#N)=C(NC(C)c1cccs1)c1sccc1Br` (stereo not shown) [Compound 211], the “Log P” value was 3.92^[a]. The same measure, in the same setting: as for `CCOC(=O)C(C#N)=C(NC(C)c1cccs1)c1sc(C)nc1C(F)(F)F` (stereo not shown) [Compound 212], the figure is 3.8^[a].

Turning to `CCOC(=O)C(C#N)=C(NC(C)c1cccs1)c1cn(C)nc1C(F)F` (stereo not shown) [Compound 213], the “Log P” value is 3.02^[a]. As for `CC(C)NC(=O)C(C#N)=C(NC(C)c1nccs1)c1sccc1Br` (stereo not shown) [Compound 214], the “Log P” value was 3.11^[a].

As for `CCOC(=O)C(C#N)=C(NC(C)c1sc(C)nc1C)c1sccc1Br` (stereo not shown) [Compound 215], the “Log P” value is 3.23^[a]. With `CCOC(=O)C(C#N)=C(NC(C)c1ncc(C)s1)c1sccc1C(F)(F)F` (stereo not shown) [Compound 216], the “Log P” value was 3.67^[a].

Still in this data set, the particulars now being: pH 7.5.
With `CCOC(=O)C(C#N)=C(NC(C)Cn1nc(C(F)(F)C(F)(F)F)nc1SC)c1cccnc1Cl` (stereo not shown) [Compound 127], the “Log P” value was found to be 3.66.
